Test results: patent US20260008758A1, “LINEAR DIPEPTIDYL PEPTIDASE 1 INHIBITORS AND USES THEREOF” (Insmed Incorporated, priority 2024, published 2026)

Legend:
[1] = target: human DPP1 enzyme (Homo sapiens (Human), UniProt P53634); test: Human DPP1 enzyme single-point percent inhibition testing (HL-60 lysate, H-Gly-Arg-AMC substrate); format: biochemical; conditions: read-out: human DPP1 enzyme % inhibition @ 10 nM, 10 nM compound, 400 μM H-Gly-Arg-AMC, 10 min pre-incubation at 37° C.
Method: A crude lysate of HL-60 cells (ATCC; Manassas, VA) was used as a source of human DPP1 enzyme in the assay. Lysate was prepared in 1% Triton X-100 in PBS at a concentration of 20,000 live cells per […] of lysis buffer and was centrifuged at 16,000 rcf for 10 minutes at 4° C., after which supernatant was collected and flash-frozen in liquid nitrogen. Test articles were applied to human DPP1 enzyme in Assay Buffer (25 mM MES pH 6.0, 50 mM NaCl, 5 mM DTT) in a total reaction volume of 125 μL. 25 μL of compound diluted to 50 nM in Assay Buffer plus 5% DMSO was first added to 50 μL of HL-60 lysate diluted to contain a DPP1 enzyme concentration of roughly 1 ng/μL and allowed to pre-incubate for 10 minutes at 37° C. after which 50 μL of 1000 μM H-Gly-Arg-AMC substrate (Bachem; St. Torrance, CA) was added, giving final compound concentration of 10 nM, a final substrate concentration of 400 μM and a final DMSO concentration of 1%. Substrate cleavage was measured for 90 minutes at 37° C., with fluorescence at Excitation/Emission 350/450 nm measured every 5 minutes. DPP1 concentration was interpolated based on its activity relative to a standard curve of activated human recombinant DPP1 enzyme. Percent inhibition at 10 nM was calculated for each test article based on remaining DPP1 activity compared to enzyme activity in wells that received only vehicle control.

[2] = target: DPP1 in HL-60 cells (Homo sapiens (Human), UniProt P53634); test: DPP1 cell single-point percent inhibition testing (HL-60 cells, H-Gly-Phe-AFC substrate); format: cell-based; conditions: read-out: DPP1 cell % inhibition @ 5 nM, 5 nM compound, 100 μM H-Gly-Phe-AFC, 60 min pre-incubation at 37° C.
Method: HL-60 cells (ATCC; Manassas, VA) were maintained in RPMI-1640 supplemented with 20% heat-inactivated FBS and 1× Antibiotic Antimycotic (Cytiva; Marlborough, MA). Media was changed every three to four days and cells were not allowed to exceed 1×10^6 cells per mL. Prior to assay, cells were collected by centrifugation at 500 rcf for 3 minutes, resuspended in RPMI (with no additional supplements) and counted. Cells were diluted in RPMI to a concentration of 5×10^5 live cells per mL and transferred to black 96-well plates for assay, 60 μL per well. Test articles were diluted to 25 nM in RPMI plus 0.5% DMSO, and 20 μL was added to each assay well. Compound was allowed to pre-incubate with cells with gentle shaking at 100 rpm for 60 minutes at 37° C. in a cell culture incubator maintained at 5% CO2, after which 20 μL of 500 μM H-Gly-Phe-AFC cell-permeable substrate (MP Biomedicals; Solon, OH) in RPMI was added to each well, giving final compound concentration of 5 nM, a final substrate concentration of 100 μM and a final DMSO concentration of 0.1%. Plates were returned to the incubator with shaking at 100 rpm for 30 minutes, after which fluorescence was measured at Excitation/Emission 400/505 nm. Percent Inhibition was calculated from RFU values by first subtracting background values (wells in which RPMI was substituted for cells) from each well, and then subtracting background-subtracted RFU derived from wells that received a final concentration of 10 μM brensocatib. This value represents the non-specific substrate cleavage from the HL-60 cells, and the remaining RFU should theoretically be solely the contribution of DPP1 enzyme activity. The final percent inhibition value was calculated for each test article based on remaining RFU compared to RFU from wells that received only vehicle control.

DPP1 in HL-60 cells, sequence (P53634 25-134): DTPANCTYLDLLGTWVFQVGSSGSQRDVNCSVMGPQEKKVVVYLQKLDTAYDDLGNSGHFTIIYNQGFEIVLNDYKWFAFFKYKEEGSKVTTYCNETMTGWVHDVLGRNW
DPP1 in HL-60 cells, sequence (P53634 231-394): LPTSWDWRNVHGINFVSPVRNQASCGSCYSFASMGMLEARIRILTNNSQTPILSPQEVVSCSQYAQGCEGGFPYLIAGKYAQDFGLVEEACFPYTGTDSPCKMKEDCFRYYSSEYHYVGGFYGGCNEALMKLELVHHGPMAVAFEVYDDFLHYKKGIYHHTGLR
DPP1 in HL-60 cells, sequence (P53634 395-463): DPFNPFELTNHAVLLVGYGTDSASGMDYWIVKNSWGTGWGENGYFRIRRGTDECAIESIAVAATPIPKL
human DPP1 enzyme, sequence (P53634 25-134): as the sequence (P53634 25-134) above
human DPP1 enzyme, sequence (P53634 231-394): as the sequence (P53634 231-394) above
human DPP1 enzyme, sequence (P53634 395-463): as the sequence (P53634 395-463) above

| Structure (SMILES) | inhibition at 0.01 µM [1] [%] | inhibition at 0.005 µM [2] [%] |
| --- | --- | --- |
| COCCN(C)CCn1c(=O)oc2ccc(-c3ccc(C[C@@H](C#N)NC(=O)[C@@H](O)CN(C)C)c(F)c3)cc21 [Compound 368] | ≥ 66.7 | ≤ 76.5 |
| CN(C)C[C@H](O)C(=O)N[C@H](C#N)Cc1ccc(-c2ccc3cnn(C)c3c2)cc1 [Compound 370] | ≤ 40 | ≤ 76.5 |
| CN(C)C[C@H](O)C(=O)N[C@H](C#N)Cc1ccc(-c2ccc3nnn(C)c3c2)cc1 [Compound 371] | ≤ 40 | ≤ 76.5 |
| CN(C)C[C@H](O)C(=O)N[C@H](C#N)Cc1ccc(-c2cnc3c(n2)CCCC3)cc1 [Compound 372] | ≤ 40 | ≤ 76.5 |
| CN(C)C[C@H](O)C(=O)N[C@H](C#N)Cc1ccc(-c2ccc3cnn(C)c3c2)cc1F [Compound 374] | ≤ 40 | ≤ 76.5 |
| CN(C)C[C@H](O)C(=O)N[C@H](C#N)Cc1ccc(-c2cnc3c(n2)CCCC3)cc1F [Compound 376] | ≤ 40 | ≤ 76.5 |
| CN(C)C[C@H](O)C(=O)N[C@H](C#N)Cc1ccc(-c2ccc(S(=O)(=O)N3CCC3)cc2)cc1F [Compound 377] | ≤ 40 | ≤ 76.5 |
| CN(C)C[C@H](O)C(=O)N[C@H](C#N)Cc1cc2c(cc1F)-c1ccc(F)cc1CO2 [Compound 378] | ≤ 40 | ≤ 76.5 |
| CN(C)C[C@](C)(O)C(=O)NC(C#N)Cc1cc2c(cc1F)-c1cc(C3COC3)c(F)cc1CO2 (stereo partly shown) [Compound 379] | ≤ 40 | ≤ 76.5 |
| CN(C)C[C@](C)(O)C(=O)N[C@H](C#N)Cc1cc2c(cc1F)-c1ccc(C#N)cc1CO2 [Compound 380] | ≤ 40 | ≤ 76.5 |
| CN(C)C[C@](C)(O)C(=O)NC(C#N)Cc1cc2c(cc1F)-c1cc3c(cc1CO2)oc(=O)n3C (stereo partly shown) [Compound 381] | 40 to 66.7 | 76.5 to 93.9 |
| CN(C)C[C@](C)(O)C(=O)NC(C#N)Cc1cc2c(cc1F)-c1cc(C#N)ccc1CO2 (stereo partly shown) [Compound 382] | ≤ 40 | ≤ 76.5 |
| CN(C)C[C@](C)(O)C(=O)NC(C#N)Cc1cc2c(cc1F)-c1ccc3oc(=O)n(C)c3c1CO2 (stereo partly shown) [Compound 383] | ≤ 40 | ≤ 76.5 |
| CN(C)C[C@](C)(O)C(=O)N[C@H](C#N)Cc1ccc(-c2ccc3c(c2)C2(CC3)CCN(C)CC2)cc1 [Compound 384] | ≥ 66.7 | ≤ 76.5 |
| CN(C)C[C@](C)(O)C(=O)N[C@H](C#N)Cc1ccc(-c2ccc3c(c2)C2(CCCN(C)C2)C(=O)N3C)cc1 (stereo partly shown) [Compound 385] | ≥ 66.7 | ≥ 93.9 |
| CN(C)CCn1c(=O)oc2ccc(-c3ccc(C[C@@H](C#N)NC(=O)[C@@](C)(O)CN(C)C)cc3)cc21 [Compound 386] | ≥ 66.7 | 76.5 to 93.9 |
| CN(C)C[C@](C)(O)C(=O)N[C@H](C#N)Cc1ccc(-c2ccc3c(c2)C2(CN(C)C2)OC3=O)cc1 [Compound 388] | ≥ 66.7 | ≥ 93.9 |
| CCN1C(=O)Cc2ccc(-c3ccc(C[C@@H](C#N)NC(=O)[C@@](C)(O)CN(C)C)cc3)cc21 [Compound 389] | 40 to 66.7 | 76.5 to 93.9 |
| CN(C)C[C@](C)(O)C(=O)N[C@H](C#N)Cc1ccc(-c2ccc3c(c2)C2(CCN(C)C2)OC3=O)cc1 (stereo partly shown) [Compound 390] | ≥ 66.7 | ≤ 76.5 |
| CN(C)C[C@](C)(O)C(=O)N[C@H](C#N)Cc1ccc(-c2ccc3cnn(C4CCN(C)CC4)c3c2)cc1 [Compound 391] | ≥ 66.7 | ≤ 76.5 |
| CN(C)C[C@](C)(O)C(=O)N[C@H](C#N)Cc1ccc(-c2ccc3c(c2)C2(CCN(C4COC4)CC2)OC3)cc1 [Compound 392] | ≥ 66.7 | ≤ 76.5 |

| Structure (SMILES) | inhibition at 0.01 µM [1] [%] | inhibition at 0.005 µM [2] [%] |
| --- | --- | --- |
| CN(C)C[C@](C)(O)C(=O)N[C@H](C#N)Cc1ccc(-c2ccc3oc(=O)n(CCN4CCOCC4)c3c2)cc1 [Compound 393] | 40 to 66.7 | ≤ 76.5 |
| CN(C)C[C@](C)(O)C(=O)N[C@H](C#N)Cc1ccc(-c2ccc(CN3CCN(C)CC3)cc2)cc1 [Compound 394] | ≤ 40 | 76.5 to 93.9 |
| CN(C)C[C@](C)(O)C(=O)N[C@H](C#N)Cc1ccc(-c2ccc3oc(=O)n(C)c3c2)cc1 [Compound 395] | ≥ 66.7 | 76.5 to 93.9 |
| CN(C)C[C@](C)(O)C(=O)N[C@H](C#N)Cc1ccc(-c2ccc3c(n2)CCCN3)cc1 [Compound 396] | ≤ 40 | ≤ 76.5 |
| CN(C)C[C@](C)(O)C(=O)N[C@H](C#N)Cc1ccc(-c2ccc3c(c2)C2(CC3)CCN(C)CC2)cc1F [Compound 397] | ≥ 66.7 | ≤ 76.5 |
| CN(C)C[C@](C)(O)C(=O)N[C@H](C#N)Cc1ccc(-c2ccc3c(c2)C2(CCCN(C)C2)C(=O)N3C)cc1F (stereo partly shown) [Compound 398] | ≥ 66.7 | ≥ 93.9 |
| CN(C)CCn1c(=O)oc2ccc(-c3ccc(C[C@@H](C#N)NC(=O)[C@@](C)(O)CN(C)C)c(F)c3)cc21 [Compound 399] | ≥ 66.7 | ≥ 93.9 |
| Cc1cn2cc(-c3ccc(C[C@@H](C#N)NC(=O)[C@@](C)(O)CN(C)C)c(F)c3)cc2c(C)n1 [Compound 400] | 40 to 66.7 | 76.5 to 93.9 |
| CN(C)C[C@](C)(O)C(=O)N[C@H](C#N)Cc1ccc(-c2ccc3c(c2)C2(CN(C)C2)OC3=O)cc1F [Compound 401] | ≥ 66.7 | ≥ 93.9 |
| CCN1C(=O)Cc2ccc(-c3ccc(C[C@@H](C#N)NC(=O)[C@@](C)(O)CN(C)C)c(F)c3)cc21 [Compound 402] | ≥ 66.7 | 76.5 to 93.9 |
| CN(C)C[C@](C)(O)C(=O)N[C@H](C#N)Cc1ccc(-c2ccc3c(c2)C2(CCN(C)C2)OC3=O)cc1F (stereo partly shown) [Compound 403] | ≥ 66.7 | 76.5 to 93.9 |
| CN(C)C[C@](C)(O)C(=O)N[C@H](C#N)Cc1ccc(-c2ccc3cnn(C4CCN(C)CC4)c3c2)cc1F [Compound 404] | ≥ 66.7 | ≤ 76.5 |
| CN(C)C[C@](C)(O)C(=O)N[C@H](C#N)Cc1ccc(-c2ccc3c(c2)C2(CCN(C4COC4)CC2)OC3)cc1F [Compound 405] | ≥ 66.7 | 76.5 to 93.9 |
| CN(C)C[C@](C)(O)C(=O)N[C@H](C#N)Cc1ccc(-c2ccc3oc(=O)n(CCN4CCOCC4)c3c2)cc1F [Compound 406] | ≥ 66.7 | 76.5 to 93.9 |
| CN(C)C[C@](C)(O)C(=O)N[C@H](C#N)Cc1ccc(-c2ccc(CN3CCN(C)CC3)cc2)cc1F [Compound 407] | 40 to 66.7 | ≥ 93.9 |
| CN(C)C[C@](C)(O)C(=O)N[C@H](C#N)Cc1ccc(-c2ccc3oc(=O)n(C)c3c2)cc1F [Compound 408] | ≥ 66.7 | ≥ 93.9 |
| CN(C)C[C@](C)(O)C(=O)N[C@H](C#N)Cc1ccc(-c2ccc3c(n2)CCCN3)cc1F [Compound 409] | ≥ 66.7 | 76.5 to 93.9 |
| COCCN(C)CCn1c(=O)oc2ccc(-c3ccc(C[C@@H](C#N)NC(=O)[C@@](C)(O)CN(C)C)c(F)c3)cc21 [Compound 410] | ≥ 66.7 | ≥ 93.9 |
| CN(C)C[C@](C)(O)C(=O)N[C@H](C#N)Cc1ccc(-c2ccc3nnn(C)c3c2)cc1 [Compound 413] | 40 to 66.7 | 76.5 to 93.9 |
| CN(C)C[C@](C)(O)C(=O)N[C@H](C#N)Cc1ccc(-c2cnc3c(n2)CCCC3)cc1 [Compound 414] | ≤ 40 | ≤ 76.5 |
